According to paper PMC9168369 (Frontiers in Pharmacology, 2022):
Where two headings read alike, the source gives them in different places.

Legend:
IDO1 = conditions: read-out: average IC50, cellular assay; ref Yue et al., 2017; Komiya and Huang, 2018; cited from earlier work
Hela cells = test: Cell anti-proliferative activity, CCK8 assay; type: cell-based; conditions: Homo sapiens, CCK8, 48 h, 0.25 to 16.0 μM
Protocol: Cell anti-proliferative activity to Hela was evaluated by the CCK8 assay. The Hela cells were seeded at a density of 2,000 cells per well into a 96-well microplate in 100 μl of the growth medium. Cells were incubated at 37°C and 5% CO2 overnight. The next day, 100 μl per well of the diluted inhibitor in the growth medium was added with the final concentration from 0.25 to 16.0 μM. The cells were treated with DMSO as control. A series of dilutions were made in 0.1% DMSO in the assay medium so that the final concentration of DMSO was 0.1% in all of treatments. Cells were incubated at 37°C and 5% CO2 for 48 h. Then, 10 μl of CCK8 was added to each well. The plates were incubated at 37°C for 2 h, after that, the plates were recorded by measuring the absorbance at 450 nm with the reference wavelength of 630 nm using an EnVision Multilabel Reader (PerkinElmer). All assays were conducted with three parallel samples and three repetitions.

[1] = system: SHEE cells (human immortalized esophageal epithelial cell line); test: Toxicity to SHEE, MTT assay; type: cell-based; conditions: 48 h, read-out: IC50 SHEE
Protocol: Toxicity to SHEE was evaluated by using the MTT assay. The SHEE cells were seeded in 96-well plates with densities of 2,200–2,500 cells/well in 100 μl. One day after seeding, the concentration of the test compounds being between 0 and 50 μM, 0.1% DMSO were added to the cells as control. Approximately 2,200–2,500 transfected cells in 100 μl were incubated in quintuplicate in 96-well plates. After 48 h, MTT was added and incubated in the plate for 1–4 h in the incubator. The absorbance at 490 nm was measured using a microplate reader (Thermo).

[2] = parameters: method as in Ma et al. (2019); conditions: ref Ma et al. (2019); cited from earlier work
human IDO1 = target: T1, human IDO1 (Homo sapiens, UniProt P14902); test: Hela cell based IDO1 assay (kynurenine readout, IFN-γ induced); conditions: Hela cells, human IFN-γ 100 ng/ml, 18 h
T1 construct: Hela cell was selected because of its expression in native human IDO1 induced with IFNγ; endogenous in cells; host or cells: Hela cells (ATCC), induced with human IFN-γ 100 ng/ml
T1 sequence (P14902 whole entry): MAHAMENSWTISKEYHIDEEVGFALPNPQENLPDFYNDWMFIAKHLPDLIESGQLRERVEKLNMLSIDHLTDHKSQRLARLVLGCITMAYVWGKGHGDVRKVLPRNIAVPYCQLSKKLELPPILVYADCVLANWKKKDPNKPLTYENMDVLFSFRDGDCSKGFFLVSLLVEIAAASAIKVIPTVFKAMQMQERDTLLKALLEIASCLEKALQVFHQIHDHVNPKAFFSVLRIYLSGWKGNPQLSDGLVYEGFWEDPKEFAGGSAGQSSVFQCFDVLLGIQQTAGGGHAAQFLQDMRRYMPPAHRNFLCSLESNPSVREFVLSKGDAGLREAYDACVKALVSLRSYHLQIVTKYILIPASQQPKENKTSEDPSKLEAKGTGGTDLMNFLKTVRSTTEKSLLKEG
Protocol: To perform the Hela cell based IDO1 assay, Hela cells were seeded at 50,000 cells per well into a 96-well microplate in 100 μl of DMEM complete growth medium overnight. The next day, 100 μl of the diluted inhibitor was added into each well in the growth medium, then human IFN-γ was added with a final concentration of 100 ng/ml. Cells were incubated for 18 h. […] The plate was incubated at 50°C for 30 min to hydrolyze N-formyl kynurenine produced by IDO to kynurenine. The plate was then centrifuged at 2,500 rpm for 10 min to remove sediments. 100 μl of supernatant per well was transferred to another 96-well plate and mixed with 100 μl of 2% (w/v) 4-(dimethylamino) benzaldehyde in acetic acid. The plate was incubated at room temperature for 10 min, the yellow color derived from kynurenine was recorded by measuring the absorbance at 480 nm using a microplate reader (PerkinElmer, United States).

SMILES | IC50 (Hela cells) [µM] | melting point [°C] | IC50 (human IDO1) [µM] | further results
C#Cc1cccc(Nc2ncnc3cc(OCCOC)c(OCCOC)cc23)c1 [Erlotinib, reference compound] | > 16 | – | – | IC50 [1]: 21 ± 2.11 µM
O[C@H](C[C@H]1c2c(F)cccc2-c2cncn21)[C@H]1CC[C@H](O)CC1 [Navoximod] | – | – | – | absorption [2]: quickly absorbed; tolerability [2]: well tolerated
COCCOc1cc2ncnc(Nc3cccc(-c4cn(-c5ccccc5)nn4)c3)c2cc1OCCOC [compound a, [6,7-Bis-(2-methoxy-ethoxy)-quinazolin-4-yl]-[3-(1-phenyl-1H-[1,2,3]triazol-4-yl)-phenyl]-amine] | > 16 | – | – | –
COCCOc1cc2ncnc(Nc3cccc(-c4cn(Cc5ccccc5)nn4)c3)c2cc1OCCOC [compound b, N-(3-(1-Benzyl-1H-1,2,3-triazol-4-yl)phenyl)-6,7-bis(2-methoxyethoxy)quinazolin-4-amine] | > 16 | 89 to 92 | – | IC50 ([1]; MTT, 0 to 50 μM): > 50 µM
COCCOc1cc2ncnc(Nc3cccc(-c4cn(CCc5ccccc5)nn4)c3)c2cc1OCCOC [compound c, [6,7-Bis-(2-methoxy-ethoxy)-quinazolin-4-yl]-[3-(1-phenethyl-1H-[1,2,3]triazol-4-yl)-phenyl]-amine] | > 16 | 109 to 112 | 47.1 ± 33.2 | –
COCCOc1cc2ncnc(Nc3cccc(-c4cn(Cc5ccccc5I)nn4)c3)c2cc1OCCOC [compound d, [6,7-Bis-(2-methoxy-ethoxy)-quinazolin-4-yl]-{3-[1-(2-iodo-benzyl)-1H-[1,2,3]triazol-4-yl]-phenyl}-amine] | – | 93 to 96 | 0.4 ± 0.14 | –
COCCOc1cc2ncnc(Nc3cccc(-c4cn(Cc5ccccc5Br)nn4)c3)c2cc1OCCOC [compound e, [6,7-Bis-(2-methoxy-ethoxy)-quinazolin-4-yl]-{3-[1-(2-bromo-benzyl)-1H-[1,2,3]triazol-4-yl]-phenyl}-amine] | > 16 | 94 to 97 | 0.32 ± 0.07 | –
